Earlier results on one molecule are cited in patent US20100215763A1, “Method of using the body's alternative cellular energy pigments (ACE-pigments) in the therapy of diseases” (priority 2009, published 2010).

This data set concerns HSV and HZV skin lesions.

Turning to `Cc1cc2nc3ccc(N(C)C)cc3nc2cc1N.Cl` [neutral red], the “healing of treated HSV and HZV skin lesions” value (neutral red applied to active lesions followed by UV illumination) is “expedited healing”. Moreover, the “healing of distant HSV lesions” value (patients with lesions at more than one location, neutral red and UV limited to a single lesion) was “expedited healing in all lesions”.
